Assay results reported in patent US10398715B2, “Methods for increasing brain functionality using 2-fucosyl-lactose” (priority 2012, dated 2019).

Columns and labels:
[1] = system: hippocampal CA3-CA1 synapse; assay: Input/output curves evoked at the hippocampal CA3-CA1 synapse in alert behaving rats; type: in vivo, Sprague Dawley rats; conditions: 1 g/kg p.o. in gelatin, 90 and 180 minutes after administration vs before, FIG. 2
Protocol: (§1) In this Example, the effect of 2FL on LTP of the hippocampal CA3-CA1 synapse in alert behaving rats was analyzed,
(§2) A total of four male Sprague Dawley rats, each 2 months old weighing from 150-200 g, were placed in individual cages with food and water ad libitum. Rats were kept on a 12/12 hour light/dark cycle with constant ambient temperature (22±1° C.) and humidity (50±7%). All tests were conducted during the light cycle.
(§3) The rats were anesthetized with 0.8%-3% isofluorane (available from AstraZeneca, Madrid, Spain) delivered via a home-made mask. […] was administered from a calibrated Fluotec 5 vaporizer (available from Fluotec-Ohmeda, Tewksbury, Mass.) at a flow rate of 1-4 L/min oxygen. Once anesthetized, the rats were implanted with stimulating and recording electrodes in the hippocampus. […] The recording electrodes were fixed at the site where a reliable monosynaptic field excitatory post-synaptic potential (fEPSP) was recorded. […]
(§4) Control values for input/output curves and paired-pulse facilitation in the four rats were determined. […]

[2] = system: hippocampal CA3-CA1 synapse; assay: Paired-pulse test in alert behaving rats; type: in vivo, Sprague Dawley rats; conditions: 1 g/kg p.o., before, 90 min and 180 min after administration, FIG. 3
Protocol: as §1, §2, §3, §4

[3] = system: hippocampal CA3-CA1 synapse; assay: LTP induction in behaving rats; type: in vivo, Sprague Dawley rats; conditions: after 15 days of daily administration of 1 g/kg, vs control values, FIG. 4
Protocol: as §1, §2, §3
For evoking LTP, each rat was presented with five 200 Hz, 100 ms trains of pulses at a rate of 1/s. […] After, fEPSPs were recorded again for 30 minutes. […]

[4] = system: Acetylcholinesterase (AChE); assay: Acetylcholinesterase (AChE) levels in zebrafish embryos; type: in vivo; conditions: zebrafish larvae, 74.73 mg per liter, 24 hours at 26° C.; negative control water; FIG. 5
Protocol: In this Example, the effect of 2FL on Acetylcholinesterase (AChE) in zebrafish embryos was analyzed.
Zebrafish embryos were grown in water for 96 post-fertilization hours, when eclosion occurs. The larvae were then transferred into a 24-well culture dish and incubated for 24 hours at 26° C. in a dilution of 74.73 mg of 2FL per liter. A negative control (water) and a positive control for AChE (100 mg docosahexaenoic acid/liter) were included in the assay.
After incubation, larvae were homogenized and centrifuged. AChE levels and total protein content were determined in the resultant supernatants. Two separate assays were done in triplicates. Specific AChE activity data were referred to control and analyzed by ANOVA. Bonferroni post hoc tests were used for comparisons.

[5] = system: hippocampal CA3-CA1 synapse; assay: Hippocampal LTP response in early stressed maternally deprived mice (fEPSP recordings); type: in vivo, C57BL/6 mice; conditions: MS-stressed mice, AIN93G diet supplemented with 2-fucosyllactose (~7 mg/day/mouse) for eight weeks; compared with the control groups, p<0.05; FIG. 1
Protocol: In this Example, the effect of 2-fucosyl-lactose on hippocampal LTP response in early stressed maternally deprived mice was analyzed.
Initially, mice pups were early stressed using a model of maternal separation. Particularly, one day after delivery, C57BL/6 mice pups were sexed and grouped as sham (non-stressed Control group) or maternally separated (MS—stressed group) animals. From day 2 until day 14 after delivery, the MS pups were removed from the dam and kept isolated for a period of 4 hours per day, typically, from 10:00 AM to 2:00 PM, in a thermostatted cup. During the same time period, pups from the sham group were daily handled for a period of five minutes in order to receive the same grade of habituation to a researcher's hands as the MS pups.
Each dam had litters of 4 males and 2 females. Females were allowed to stay with the mother, while males were maternally deprived in order to avoid stressing the dam by removing all of the pups. […]
At the nutritional intervention stage, mice were fed experimental diets for a period of eight weeks. […] The recording electrodes were fixed at the site where a reliable monosynaptic field excitatory post-synaptic potential (fEPSP) was recorded. […]
For evoking LTP, each animal was presented with five 200 Hz, […] trains of pulses at a rate of 1/s. […] After, fEPSPs were recorded again for 30 minutes. […]

2-fucosyl-lactose [2FL]
amplitude of fEPSPs evoked at the CA3-CA1 synapse (input/output curves) [1]: significantly larger
paired-pulse facilitation, differences between the three recording sessions [2]: no significant differences
fEPSPs of LTP evoked after HFS of the hippocampal CA3-CA1 synapse [3]: significantly larger fEPSPs than control values
AChE levels compared to the negative control [4]: significant increase
potentiation of field excitatory post-synaptic potentials evoked at the hippocampal CA3-CA1 synapse [5]: larger, longer-lasting potentiation
